# Assay results taken from publication PMC10526274, “Epithelial-Immune Cell Crosstalk Determines the Activation of Immune Cells In Vitro by the Human Cathelicidin LL-37 at Low Physiological Concentrations” (Biomolecules, 2023).
# Tested on: monocytes in Caco-2/Monocytes co-culture
# Test: Multiplex phosphoprotein signaling in monocyte lysates, Caco-2/monocytes co-culture + LL-37
# Format: cell-based, human
# Details: monocyte lysate, 1 µM LL-37, 2 h, mean MFI normalized to β-tubulin
# Procedure: Primary blood monocytes were isolated from PBMCs by plastic adhesion in the wells of a 24-well plate 24 h prior to the experiment. For that, 2 × 10^6 PBMC were seeded in each well in 2 mL of RPMI-1640 without supplements and kept for 1 h in a humidified CO2-incubator (5% CO2, 37 °C). Then, the adhered monocytes were thoroughly washed 3 times with the culture medium without supplements, and 600 µL of the complete RPMI-1640, supplemented with 10% Human AB serum, was added into each well. Then, 24 h later, the medium in the wells of a 24-well plate was replaced by a fresh medium with or without 1 µM of LL-37, and the permeable inserts with Caco-2 monolayers with TEER > 400 Ω × cm^2, containing 400 μL of the complete medium in their apical chamber, were immediately placed into the appropriate wells for 2 h. Then, 2 h later, the culture medium and the inserts were carefully removed, and the cells in each well were washed with PBS and lysed in 100 µL of MILLIPLEX MAP Lysis Buffer (cat. #43-040, Merck, Darmstadt, Germany), containing phosphatase inhibitors including 1 mM sodium orthovanadate (Na3VO4). To prevent protein degradation, a protease inhibitor cocktail (cat. #535140, Merck) was freshly added to the MILLIPLEX MAP Lysis Buffer. Cell lysate preparation was performed in accordance with the manufacturer’s instructions.
# The phosphorylation of the following key cell signaling kinases and transcription factors was measured in cell lysates by using the MILLIPLEX multi-pathway magnetic bead 9-plex kit (#48-680MAG, Merck), containing phosphorylation state-specific antibodies: ERK/MAP kinase 1/2 (Thr185/Tyr187), Akt (Ser473), STAT3 (Ser727), JNK (Thr183/Tyr185), p70S6 kinase (Thr412), NF-κB (Ser536), STAT5A/B (Tyr694/699), CREB (Ser133), and p38 (Thr180/Tyr182). β-Tubulin MAPmate magnetic beads (#46-713MAG, Merck) were used as an assay normalization control to normalize the total protein level between the samples. A multiplex assay was carried out in accordance with the manufacturer’s instructions with overnight incubation of the samples with primary antibodies to phosphorylated signaling proteins on the MAGPIX system (Merck) using the xPONENT 4.2 software (Merck). The final analysis of the acquired fluorescence data was performed with the MILLIPLEX Analyst v5.1 software (Merck). Normalized MFI values were compared with an unpaired two-sample t-test using GraphPad Prism v.8.0.1 (GraphPad Software). The p-values ≤ 0.05 were considered significant.
substance,measurement,setting,value
"LL-37: the only human cathelicidin, host defense antimicrobial peptide of 37 a.a. residues, produced by solid-phase peptide synthesis",phosphorylated STAT3,control 0.06,0.06 MFI
same,phosphorylated NF-kB,control 0.09,0.09 MFI
same,phosphorylated STAT5,control 0.09,0.09 MFI
same,phosphorylated JNK,control 48.84,176.7 MFI
same,phosphorylated p70S6K,control 472.48,902.08 MFI
same,phosphorylated Akt,control 2712,2358 MFI
same,phosphorylated ERK 1/2,control 5812,11464 MFI
same,phosphorylated p38,control 17697,21951 MFI
same,phosphorylated CREB,control 81479,106317 MFI
